From patent US20250341522A1, “Treatment Strategies for Pancreatic Cancer Using Recombinant Acid Sphingomyelinase” (University of Cincinnati, priority 2024, published 2025)

Key:
[1] = biological target: T1, ASM (Mus musculus, UniProt Q04519); experiment: Incubation of ex vivo splenocytes, Ly6G-sorted myeloid cells or J774 macrophages with polyamines: ASM activity and sphingomyelin; type: cell-based, mice; settings: agmatine 5 μM, 8 hr
T1 construct: endogenous in cells; host or cells: ex vivo mouse splenocytes, Ly6G-sorted myeloid cells, J774 macrophages
T1 sequence (Q04519 45-627): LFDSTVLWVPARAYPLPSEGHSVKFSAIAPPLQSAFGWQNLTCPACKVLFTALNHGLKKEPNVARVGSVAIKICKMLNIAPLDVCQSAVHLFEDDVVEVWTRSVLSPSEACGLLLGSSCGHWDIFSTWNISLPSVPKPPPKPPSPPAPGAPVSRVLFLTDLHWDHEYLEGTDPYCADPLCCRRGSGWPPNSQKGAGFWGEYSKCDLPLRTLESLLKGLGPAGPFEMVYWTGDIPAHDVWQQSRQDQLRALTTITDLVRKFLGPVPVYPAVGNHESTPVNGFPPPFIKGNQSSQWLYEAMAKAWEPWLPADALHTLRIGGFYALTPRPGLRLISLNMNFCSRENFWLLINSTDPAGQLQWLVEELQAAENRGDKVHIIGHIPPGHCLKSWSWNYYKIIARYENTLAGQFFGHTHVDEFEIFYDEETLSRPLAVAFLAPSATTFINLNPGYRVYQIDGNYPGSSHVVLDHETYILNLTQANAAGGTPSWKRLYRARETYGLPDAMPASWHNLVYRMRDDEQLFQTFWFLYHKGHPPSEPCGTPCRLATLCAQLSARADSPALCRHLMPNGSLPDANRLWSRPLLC
Procedure: FIG. 9A is a graph showing the concentration of polyamines in the blood plasma of wt or ASM-tr mice determined by ELISA. FIG. 9B is a graph showing the activity of ASM for splenocytes that were isolated from wt or ASM-tr mice and stimulated for 8 hr with 5 μM agmatine (Agm), 100 μM spermine (Sp), or 100 μM spermidine (Spd). FIG. 9C is a graph showing the concentrations of sphingomyelin for splenocytes that were isolated from wt or ASM-tr mice and stimulated for 8 hr with 5 μM agmatine (Agm), 100 μM spermine (Sp), or 100 μM spermidine (Spd). The activity of ASM and the concentrations of sphingomyelin were determined by an enzyme assay or ELISA. Mean±SD; n=6-8; **p<0.01, ***p<0.001 ANOVA.
An increase of Arg-1 and ADC expression may also increase polyamine concentrations. […]
FIG. 10 is a graph showing ASM activity (A) and levels of sphingomyelin (B), Arg-1 (C), and ADC (D) were determined in macrophages (J774 cell line) or in stable ASM-transfected J774 (with an approximately 3-fold overexpression of ASM) at baseline, after treatment with agmatine (Agm, 5 μM), spermine (Sp, 100 μM), or spermidine (Spd, 100 μM), supernatant (Sup) from KPC cells, and supernatant immunodepleted (id) of polyamines. ASM activity was measured by determining the consumption of [^14C]sphingomyelin, Sphingomyelin-, Arginase-1- and ADC-levels were quantified by ELISA. […]

[2] = system: Pan02 pancreas cancer cells; experiment: Orthotopic pancreatic cancer murine model (Pan02), tumor size 15 days after injection; type: in vivo; settings: wildtype mice, amitriptyline 10 mg/kg i.p. every other day, 15 days after tumor initiation, vs vehicle
Procedure: The wildtype mice were randomly divided into 2 groups treated with antidepressant (amitriptyline 10 mg/kg, i.p. injected every 2nd day) or vehicle, i.e. 0.9% NaCl. The size of the pancreas cancer was determined 15 days after tumor initiation.
FIG. 4 is a graph showing a growth of PDAC in murine models of orthotopic pancreatic ductal adenocarcinoma. Wildtype mice were injected orthotopically into the pancreas with […] Pan02 pancreas cancer cells and either left untreated or treated with amitriptyline at 10 mg/kg every other day via IP injection starting at day 4 after tumor injection. In addition, we injected acid sphingomyelinase-deficient littermates with Pan02 pancreas cancer cells orthotopically into the pancreas. Tumor size was determined 15 days after injection. Shown are the mean±SD of the tumor size from each n=4-5 mice per group; *p<0.05, ANOVA with Tukey post hoc test.
All animal experiments were approved by the University of Cincinnati Ethic Committee and the Institutional Animal Care and Use Committee. Eight-week-old, wild type male, C57BL/6J mice were purchased from Jackson Labs (000664, Jackson Labs, USA). Acid sphingomyelinase-deficient mice (Smpd1−/−) were bred and genotyped at the animal facility of the University of Cincinnati. […] The size of the pancreas cancer was determined in all groups 15 days after tumor initiation.

[3] = system: isolated immune cells from tumors in wt mice; experiment: Anti-CD3-mediated IL-2 and INFγ formation in isolated immune cells from tumor wt mice; type: cell-based; settings: arginine added to isolated immune cells from tumors in wt mice
Source text: Further, it was confirmed that sphingomyelin caused upregulation of Arg-1 and ADC and the concomitant reduction of arginine concentrations results in immune inhibition. Confirmation was accomplished by the finding that anti-CD3-mediated IL-2 and INFγ-formation, as well as cytotoxicity toward KPC cells, is lower in splenocytes isolated from wt mice injected with PDAC than in splenocytes from ASM-tr mice (FIG. 8E).

[4] = system: KPC-PDAC cells; experiment: Tumor development and survival of wildtype and ASM-transgenic mice after i.p. injection of KPC-PDAC cells, gemcitabine treatment (Example 4, FIG. 5); type: in vivo; settings: for response of tumors to treatment: i.p. KPC-PDAC cells
Procedure: FIG. 5 is a graph showing the survival of wildtype and ASM-transgenic mice after i.p. injection of 25,000 KPC cells. Treatment of ASM-transgenic (tr) mice with gemcitabine rescued 100% of the mice from tumor growth. n=12 each group.
An experiment was conducted to determine if acid sphingomyelinase overexpression prevents tumor growth. Based on the clinical data, the effects of ASM overexpression and tumor growth were evaluated.

[5] = biological target: T2, SLC66A1 (Mus musculus, UniProt Q8C4N4); experiment: Binding of [14C]sphingomyelin to immunoprecipitated SLC66A1
T2 construct: SLC66A1 was immunoprecipitated from 40×10^6 splenocytes, after lysis in RIPA-buffer+aprotinin/leupeptin; endogenous in cells; host or cells: splenocytes (immunoprecipitate on protein A/G agarose)
T2 sequence (Q8C4N4 1-293): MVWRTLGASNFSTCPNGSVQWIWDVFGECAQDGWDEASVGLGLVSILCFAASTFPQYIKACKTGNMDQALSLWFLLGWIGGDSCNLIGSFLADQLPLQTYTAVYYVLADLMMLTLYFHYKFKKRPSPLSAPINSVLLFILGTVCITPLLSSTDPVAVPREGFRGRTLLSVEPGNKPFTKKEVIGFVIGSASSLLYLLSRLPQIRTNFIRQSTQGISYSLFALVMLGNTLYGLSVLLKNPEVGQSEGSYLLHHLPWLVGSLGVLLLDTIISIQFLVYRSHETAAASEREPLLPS
Procedure: FIG. 7A is a graph showing the binding of [^14C]sphingomyelin (SM), [^14C]ceramide (Cer), and [^14C]sphingosine (SPH) in the absence or presence of the VMLTLYFYY peptide.
(§1) The lysosomal arginine transporter SLC66A1 contains a VMLTLYFYY motif. A study was conducted to investigate whether SLC66A binds to sphingomyelin. […] Additionally, efflux of arginine was markedly higher in lysosomes of splenic myeloid cells isolated from wt tumors than in cells from control mice and absent in ASM-tr cells (FIG. 7B).
FIG. 7A is a graph showing SLC66A1 was immunoprecipitated from 40×10^6 splenocytes, after lysis in RIPA-buffer+aprotinin/leupeptin. Immunocomplexes were immobilized on protein A/G agarose, washed 3-times in RIPA buffer and twice in PBS+0.1% Triton X100, resuspended in the same buffer and binding of [^14C]sphingomyelin (SM), [^14C]ceramide (Cer), or [^14C]sphingosine (SPH) was measured in the absence or presence of the VMLTLYFYY peptide.

[6] = system: lysosomal arginine transport; experiment: Efflux of arginine from isolated lysosomes of Ly6G-sorted splenocytes; type: biochemical, mice; settings: lysosomes of wt cells treated with sphingomyelin
Procedure: FIG. 7B is a graph showing the results of isolated lysosomes from Ly6G-sorted splenocytes obtained from mice with or without PDAC being loaded with [^14C]arginine and the efflux of [3H]arginine being determined. Aliquots of the lysosomes were treated with sphingomyelin.
as §1
FIG. 7B is a graph showing isolated lysosomes from Ly6G-sorted splenocytes obtained from mice with or without PDAC were loaded with [^14C]arginine and the efflux of [3H]arginine was determined. Aliquots of the lysosomes were treated with sphingomyelin. Mean±SD; n=6-8; ***p<0.001 ANOVA.

N=C(N)NCCCCN [agmatine]
ASM activity [1]: inhibited ASM activity
cellular sphingomyelin concentrations [1]: increased cellular sphingomyelin concentrations

CN(C)CCC=C1c2ccccc2CCc2ccccc21 [amitriptyline]
tumor growth (tumor size) [2]: increased tumor growth

N=C(N)NCCC[C@H](N)C(=O)O [arginine]
CD3-mediated formation of IL-2 and INFγ [3]: restored

Nc1ccn([C@@H]2O[C@H](CO)[C@@H](O)C2(F)F)c(=O)n1 [gemcitabine]
response of tumors to treatment ([4]; ASM-tr mice, low dose of gemcitabine): completely eradicate the tumors
mice rescued from tumor growth ([4]; ASM-transgenic mice, 25,000 KPC cells i.p., n=12): 100%
response of tumors to treatment ([4]; wt mice): resistant

VMLTLYFYY [VMLTLYFYY peptide]
binding of sphingomyelin to SLC66A1 in the presence of peptide ([5]; excess synthetic peptide): almost abrogated

sphingomyelin
efflux of arginine from lysosomes [6]: strongly activated
binding to SLC66A1 ([5]; immunoprecipitation from splenocytes, [14C]sphingomyelin): direct and specific binding
